Assay results reported in US10428074B2, “Pyrrole heteroaryl ring derivative and method of use thereof” (Jiangsu Hengrui Medicine Co., Ltd., priority 2011, dated 2019).

Key:
[1] = test system: human erythroid leukemia cell line TF-1; assay: Proliferation inhibition assay on TF-1 cells mediated by IL-4; type: cell-based; conditions: 10 ng/mL IL-4, 72 hours
Description: The following in vitro assay is to determine the activity of the compounds of the present invention for inhibiting the proliferation of human erythroid leukemia cell line TF-1.
The activity is represented by the IC50 value, which can not only reflect the activity of a test compound for inhibiting JAK2 and JAK3 kinase, but can also reflect the selectivity of a test compound for JAK2 and JAK3 kinase.
The general procedures of the assay are given as follows: first, the TF-1 cells (purchased from ATCC, Catalog number: CRL 2003) were seeded in a 96-well cell culture plate at a suitable cell concentration (8000 cells/mL medium), and 10 ng/mL IL-4 (Invitrogen, Catalog Number: PHC0044) were added to each well. Then 10× serial concentration gradient of test compounds solutions (10000, 1000, 100, 10, 1 and 0.1 nM) were prepared, and then the 10× compound solutions prepared above were added to the 96-well cell culture plate containing IL-4. After the cell plates were cultured continuously for 72 hours, the activity of the test compounds for inhibiting the cell proliferation was determined by using a Cell Counting Kit-8 (purchased from Dojindo, Catalog Number: CK04). IC50 values were calculated from the data of the inhibition rates at various concentrations of the test compounds.

[2] = test system: T cells; assay: Proliferation inhibition assay on T cells (PBMC, anti-CD3, IL-2); type: cell-based, human; conditions: Homo sapiens, T-cell, IL-2 10 ng/mL
Description: The following in vitro assay is to determine the activity of the compounds of the present invention for inhibiting the proliferation of T cells.
The activity is represented by the IC50 value.
The general procedures of the assay are given as follows: first, the PBMC cell line (purchased from Shanghai Blood Center) was centrifuged, the supernatant was removed, and the cells counted. […] Then, the cells were washed 3 times, resuspended, diluted to 2×10^6/mL, and then mixed with recombinant human IL-2 (purchased from Peprotech, Catalog Number: 200-02) to a concentration of 10 ng/mL, and cultured for another 3 days. The cells were washed again 3 times, and diluted to 5×10^5/mL. 80 μL of the cells were seeded in each well of a 96-well cell culture plate. […] To he control wells, 10 μL culture medium were added. The plate was placed in an incubator. After incubating for 1 hr, negative control wells were mixed with 10 μL of culture medium, and the rest of the wells were mixed with IL-2 to a concentration of 10 ng/mL, and incubated continuously for 72 hours. […] IC50 values were calculated from the data of inhibition rates at various concentrations of the test compounds.

[3] = Pharmacokinetics assay in rats, intragastric administration; type: in vivo, Sprague-Dawley (SD) rats; conditions: SD rats, 10 mg/kg
Experimental: Rats were used as test animals. […] The pharmacokinetic behavior of the compounds of the present invention was studied and evaluated in rats.
56 Healthy adult Sprague-Dawley (SD) rats, half male and half female, purchased from SINO-BRITSH SIPPR/BK LAB.
The appropriate amount of test compounds were weighed and mixed with 1.0 mL of dimethyl sulfoxide to prepare a 1.0 mg/mL suspension.
After an overnight fast, SD rats were administered intragastrically at a dose of 10.0 mg/kg and an administration volume of 10 mL/kg.
The plasma samples were stored at −20° C. The rats were fed 2 hours after administration.
Content determination of the test compounds in rat plasma after intragastrically administering at different concentrations: 50 μL of rat plasmas taken at various time points after administration were mixed with 50 μL of internal standard solution and 100 μL of methanol and mixed for 3 minutes by a vortexer. The mixture was centrifuged for 10 minutes at 13,500 rpm. 10 μL of the supernatant was taken from the plasma sample and analyzed by LC-MS/MS.

[4] = target: JAK1 kinase (Homo sapiens, UniProt P23458); assay: Assay for inhibiting JAK1 kinase (in vitro kinase assay); type: biochemical; conditions: 20 μM ATP; read-out: IC50 (JAK1/Bio)
Experimental: In vitro activity of compounds of the present invention for inhibiting JAK1 kinase was determined by the following method.
IC50 values of test compounds was calculated from the data of the test compounds in inhibiting the activity of JAK1 kinase at different concentrations.

[5] = target: JAK2 kinase (Homo sapiens, UniProt O60674); assay: Assay for inhibiting JAK2 kinase (in vitro kinase assay); type: biochemical; conditions: 20 μM ATP; read-out: IC50 (JAK2/Bio)
JAK2 kinase, sequence (O60674 whole entry, looked up): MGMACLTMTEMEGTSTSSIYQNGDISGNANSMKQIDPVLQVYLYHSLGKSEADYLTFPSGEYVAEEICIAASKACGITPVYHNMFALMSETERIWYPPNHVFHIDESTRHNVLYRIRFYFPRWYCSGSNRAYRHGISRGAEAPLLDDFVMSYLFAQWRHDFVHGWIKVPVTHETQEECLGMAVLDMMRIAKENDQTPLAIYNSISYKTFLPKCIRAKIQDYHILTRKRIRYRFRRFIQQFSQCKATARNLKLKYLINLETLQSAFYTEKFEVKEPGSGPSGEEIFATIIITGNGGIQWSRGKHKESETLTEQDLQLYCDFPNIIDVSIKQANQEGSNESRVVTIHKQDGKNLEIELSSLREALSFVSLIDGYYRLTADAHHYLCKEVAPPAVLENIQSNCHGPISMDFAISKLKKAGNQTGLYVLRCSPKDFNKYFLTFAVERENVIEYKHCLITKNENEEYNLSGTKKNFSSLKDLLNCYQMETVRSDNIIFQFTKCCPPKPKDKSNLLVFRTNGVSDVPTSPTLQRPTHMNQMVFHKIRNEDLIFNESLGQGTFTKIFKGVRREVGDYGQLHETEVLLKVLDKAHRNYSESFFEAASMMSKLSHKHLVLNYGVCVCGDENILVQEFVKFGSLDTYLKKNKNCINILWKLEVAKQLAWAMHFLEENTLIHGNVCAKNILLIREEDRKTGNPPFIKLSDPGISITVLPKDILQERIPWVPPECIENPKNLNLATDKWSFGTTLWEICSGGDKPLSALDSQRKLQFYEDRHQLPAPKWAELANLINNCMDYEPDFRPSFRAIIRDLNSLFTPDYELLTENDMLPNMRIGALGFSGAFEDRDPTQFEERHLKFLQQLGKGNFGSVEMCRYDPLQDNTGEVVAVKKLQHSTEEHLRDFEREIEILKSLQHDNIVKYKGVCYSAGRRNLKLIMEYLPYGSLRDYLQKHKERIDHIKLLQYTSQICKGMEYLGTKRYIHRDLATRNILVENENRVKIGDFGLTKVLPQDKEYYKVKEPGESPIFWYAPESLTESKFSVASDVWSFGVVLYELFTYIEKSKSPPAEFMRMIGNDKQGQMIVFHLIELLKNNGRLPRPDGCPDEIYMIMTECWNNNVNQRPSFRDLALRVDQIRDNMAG
Experimental: In vitro activity of compounds of the present invention for inhibiting JAK2 kinase was determined by the following method.

[6] = target: JAK3 kinase (Homo sapiens, UniProt P52333); assay: Assay for inhibiting JAK3 kinase (in vitro kinase assay); type: biochemical; conditions: 20 μM ATP; read-out: IC50 (JAK3/Bio)
JAK3 kinase, sequence (P52333 whole entry, looked up): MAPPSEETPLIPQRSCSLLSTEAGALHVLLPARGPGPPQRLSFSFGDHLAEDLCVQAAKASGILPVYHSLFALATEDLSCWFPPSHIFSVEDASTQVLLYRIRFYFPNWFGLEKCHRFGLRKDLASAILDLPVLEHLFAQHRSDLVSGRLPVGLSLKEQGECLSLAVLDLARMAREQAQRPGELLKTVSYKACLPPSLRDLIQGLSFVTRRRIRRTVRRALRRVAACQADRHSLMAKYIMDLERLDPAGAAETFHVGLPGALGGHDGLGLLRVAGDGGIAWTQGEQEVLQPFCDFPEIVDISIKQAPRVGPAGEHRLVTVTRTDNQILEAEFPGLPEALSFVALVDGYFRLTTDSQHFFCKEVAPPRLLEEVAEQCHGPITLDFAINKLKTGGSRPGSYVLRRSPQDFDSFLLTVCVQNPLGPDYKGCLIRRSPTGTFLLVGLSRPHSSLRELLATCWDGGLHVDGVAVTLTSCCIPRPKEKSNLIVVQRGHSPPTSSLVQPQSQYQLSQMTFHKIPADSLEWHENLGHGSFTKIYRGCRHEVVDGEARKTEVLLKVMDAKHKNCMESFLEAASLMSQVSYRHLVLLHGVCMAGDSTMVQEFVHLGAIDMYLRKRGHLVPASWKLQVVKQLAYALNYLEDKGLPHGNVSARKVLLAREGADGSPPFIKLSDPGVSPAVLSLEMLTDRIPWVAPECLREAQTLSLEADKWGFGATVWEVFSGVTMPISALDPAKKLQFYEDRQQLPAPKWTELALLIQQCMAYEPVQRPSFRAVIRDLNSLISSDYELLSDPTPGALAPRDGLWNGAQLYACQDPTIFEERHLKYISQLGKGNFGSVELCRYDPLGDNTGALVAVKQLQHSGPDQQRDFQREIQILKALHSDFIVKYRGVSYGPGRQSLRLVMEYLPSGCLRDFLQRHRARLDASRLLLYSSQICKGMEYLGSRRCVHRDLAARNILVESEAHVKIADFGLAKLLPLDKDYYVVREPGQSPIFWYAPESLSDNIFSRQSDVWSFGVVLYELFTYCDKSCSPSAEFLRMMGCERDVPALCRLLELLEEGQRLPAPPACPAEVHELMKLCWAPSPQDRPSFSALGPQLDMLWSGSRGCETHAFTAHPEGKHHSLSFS
Experimental: In vitro activity of compounds of the present invention for inhibiting JAK3 kinase was determined by the following method.

Structure (SMILES) | IC50 [1] [nM] | IC50 ([2]; 72 h) [nM] | IC50 ([2]; 72 hours) [nM] | other results
C[C@H](O)C(=O)N1C[C@H]2C[C@H](N(C)c3ncnc4[nH]ccc34)C[C@H]2C1 [Example 17, (S)-2-Hydroxy-1-((3aR,5R,6aS)-5-(methyl(7H-pyrrolo[2,3-d]pyrimidin-4-yl)amino)hexahydrocyclopenta[c]pyrrol-2(1H)-yl)propan-1-one] | 165 | 29 | – | Half-Life t½ [3]: 2.03 ± 0.82 h
C[C@@H](O)C(=O)N1C[C@H]2C[C@H](N(C)c3ncnc4[nH]ccc34)C[C@H]2C1 [Example 19, (R)-2-Hydroxy-1-((3aR,5S,6aS)-5-(methyl(7H-pyrrolo[2,3-d]pyrimidin-4-yl)amino)hexahydrocyclopenta[c]pyrrol-2(1H)-yl)propan-1-one] | 711 | 724 | – | –
COc1nsc(NC(=O)N2C[C@H]3C[C@H](N(C)c4ncnc5[nH]ccc45)C[C@H]3C2)n1 [Example 34, (3aR,5S,6aS)—N-(3-Methoxy-1,2,4-thiadiazol-5-yl)-5-(methyl(7H-pyrrolo[2,3-d]pyrimidin-4-yl)amino)hexahydrocyclopenta[c]pyrrole-2(1H)-carboxamide] | 44 | 54 | – | Half-Life t½ [3]: 2.10 ± 0.73 h
CN(c1ncnc2[nH]ccc12)C1C[C@@H]2CCN(C(=O)CO)C[C@@H]2C1 (stereo partly drawn) [Example 37, 2-Hydroxy-1-((4aS,7aR)-6-(methyl(7H-pyrrolo[2,3-d]pyrimidin-4-yl)amino)hexahydro-1H-cyclopenta[c]pyridin-2(3H,4H,4aH,5H,6H,7H,7aH)-yl)ethanone] | 123 | – | 453 | –
COc1nsc(NC(=O)N2CC[C@H]3CC(N(C)c4ncnc5[nH]ccc45)C[C@H]3C2)n1 (stereo partly drawn) [Example 38, (4aS,7aR)—N-(3-Methoxy-1,2,4-thiadiazol-5-yl)-6-(methyl(7H-pyrrolo[2,3-d]pyrimidin-4-yl)amino)hexahydro-1H-cyclopenta[c]pyridine-2(3H)-carboxamide] | 160 | – | 71 | –
CCc1nsc(NC(=O)N2C[C@H]3C[C@H](N(C)c4ncnc5[nH]ccc45)C[C@H]3C2)n1 [Example 48, (3aR,5S,6aS)—N-(3-Ethyl-1,2,4-thiadiazol-5-yl)-5-(methyl(7H-pyrrolo[2,3-d]pyrimidin-4-yl)amino)hexahydrocyclopenta[c]pyrrole-2(1H)-carboxamide] | 27 | 23 | – | Half-Life t½ [3]: 2.43 ± 0.75 h
CN(c1ncnc2[nH]ccc12)[C@@H]1C[C@@H]2CN(C(=O)Nc3nncs3)C[C@@H]2C1 [Example 73, (3aR,5R,6aS)-5-(methyl(7H-pyrrolo[2,3-d]pyrimidin-4-yl)amino)-N-(1,3,4-thiadiazol-2-yl)hexahydrocyclopenta[c] pyrrole-2(1H)-carboxamide] | 476 | – | 518 | –
COc1nsc(NC(=O)N2C[C@H]3C[C@@H](N(C)c4ncnc5[nH]ccc45)C[C@H]3C2)n1 [Example 74, (3aR,5R,6aS)-N-(3-methoxy-1,2,4-thiadiazol-5-yl)-5-(methyl(7H-pyrrolo[2,3-d]pyrimidin-4-yl)amino)hexahydrocyclopenta [c]pyrrole-2(1H)-carboxamide] | 546 | 68 | – | –
CN(c1ncnc2[nH]ccc12)[C@H]1C[C@@H]2CN(C(=O)Nc3nncs3)C[C@@H]2C1 [Example 86, (3aR,5S,6aS)-5-(methyl(7H-pyrrolo[2,3-d]pyrimidin-4-yl)amino)-N-(1,3,4-thiadiazol-2-yl)hexahydrocyclopenta[c] pyrrole-2(1H)-carboxamide] | 691 | – | 130 | –
CN(c1ncnc2[nH]ccc12)[C@H]1C[C@@H]2CN(C(=O)Nc3nc(OCC(C)(C)O)ns3)C[C@@H]2C1 [Example 99] | – | 54 | – | IC50 [4]: 0.3 nM; IC50 [5]: 5 nM; IC50 [6]: 110 nM; IC50 ([1]; TF-1, 72 h): 44 nM
CN(c1ccnc2[nH]ccc12)[C@H]1C[C@@H]2CN(C(=O)CO)C[C@@H]2C1 [Example 112, 2-hydroxy-1-((3aR,5S,6aS)-5-(methyl(1H-pyrrolo[2,3-b]pyridin-4-yl)amino)hexahydrocyclopenta[c]pyrrol-2(1H)-yl) ethanone] | – | – | – | IC50 [4]: 96 nM
CN(c1ncnc2[nH]cc(F)c12)[C@H]1C[C@@H]2CN(C(=O)CO)C[C@@H]2C1 [Example 128, 1-((3aR,5S,6aS)-5-((5-fluoro-7H-pyrrolo[2,3-d]pyrimidin-4-yl) (methyl)amino)hexahydrocyclopenta[c]pyrrol-2(1H)-yl)-2-hydroxyethanone] | – | 167 | – | IC50 ([1]; TF-1, 72 h): 252 nM
